Source: US4203980A, “Benzylpyrimidine derivatives” (Hoffmann-La Roche Inc., priority 1977, dated 1980)
pIC50: −log10 of the molar value.

Target: DHFR (E. coli) (Escherichia coli, UniProt P0ABQ4)
Assay: 50% inhibition of the bacterial dihydrofolic acid reductase (DHFR), E. coli
Type: biochemical
Text: The compounds of formula I have antibacterial activity. More specifically, the compounds of formula I inhibit the bacterial dihydrofolic acid reductase (DHFR) and, moreover, potentiate the activity of sulfonamides and other dihydrofolic acid synthetase inhibitors. Exemplary of the sulfonamides which are potentiated by the compounds provided by the present invention are sulfadiazine, sulfadimethoxine, sulfadoxine, sulfamethoxazole, sulfisoxazole, sulfamoxole, 3-sulfanilamido-4,5-dimethylisoxazole, sulfalene, sulfamerazine, sulfameter, sulfamethazine and 6-methoxy-4-sulfanilamido-pyrimidine. […] Quantitatively, however, compared with known compounds, the compounds of formula I of the present invention are characterized by lower 50% inhibitory concentrations of the bacterial DHFR, for example, in the case of E. coli, and by substantially higher Q-values, that is 50% inhibition of the DHFR in the case of rats/50% inhibition of the DHFR in the case of E. coli, which represents a measurement of the selectivity of the inhibition of the bacterial DHFR.

SMILES	pIC50
C=C(C)c1c(OCC)cc(Cc2cnc(N)nc2N)cc1OCC [Compound 1, 2,4-diamino-5-(3,5-diethoxy-4-isopropenylbenzyl)-pyrimidine]	8.66
C=C(C)c1c(OC)cc(Cc2cnc(N)nc2N)cc1OC [Compound 2, 2,4-diamino-5-(4-isopropenyl-3,5-dimethoxybenzyl)-pyrimidine]	8.47
C=C(C)c1c(OC)cc(Cc2cnc(N)nc2N)cc1OCC [Compound 3, 2,4-diamino-5-(3-ethoxy-4-isopropenyl-5-methoxybenzyl)-pyrimidine]	8.49
